Experimental data as given in paper PMC7179227, “Antigenotoxic, Anti-photogenotoxic, and Antioxidant Properties of Polyscias filicifolia Shoots Cultivated In Vitro” (Molecules, 2020).
Read-outs that look alike come from different tables or passages of the source.

Key:
[1] = system: S. typhimurium TA1535/pSK1002; conditions: −S9, highest tested concentration 10 μg/mL
Experimental: (§1) IR was calculated on the basis of spectrophotometric measurement.

[2] = system: S. typhimurium TA1535/pSK1002
Experimental: Metabolic activation was obtained with S9 fraction prepared from livers of male Sprague Dawley rats. […] After isolation, the evaluation of cytochrome p450 level was performed and samples were stored at −80 ^∘ C. The S9 mix was prepared according to the method described by Maron and Ames.
as §1

[3] = system: S. typhimurium TA1535/pSK1002; assay type: cell-based, Salmonella typhimurium
Experimental: as §1

[4] = system: S. typhimurium TA1535/pSK1002; remark: listed apart in the source
Experimental: as §1
The anti-photogenotoxicity was determined using chlorpromazine (CPZ) as an agent inducing genotoxic response under UVA irradiation by forming an unstable promazyl radical which is able to bind to DNA [62]. The protocol developed by Skrzypczak et. al was applied. […] The rate of anti-photogenotoxicity was calculated using the same formula as the rate of antigenotoxicity.

[5] = system: S. typhimurium TA1535/pSK1002; conditions: mixture with 4NQO 0.05 μg/mL
Experimental: Salmonella typhimurium strain TA1535/pSK1002 was purchased from Deutsche Sammlung von Mikroorganismen und Zellkulturen GmbH (DSMZ, Germany).
The strain used in the test carries the fusion of umuC and lacZ genes, which are placed at the plasmid pSK1002. […] In the present study, the umu-test was carried out in the micro-plate variant according to the ISOguideline [61]. β -galactosidase activity of the tested compound was presented as induction ratio (IR). IR was calculated as the β -galactosidase activity of the tested compound relative to the negative control.
IR was calculated on the basis of spectrophotometric measurement. The absorption at 420 nm indicated the intensity of the enzymatic reaction, and the optical density at 600 nm indicated the bacteria growth. The measurements were performed with an Asys UVM340 Hightech microplate spectrophotometer.
At the same time, the genotoxicity of PhAs (10 μ g/mL) and EXTs (0.25–2 mg/mL) was investigated.

[6] = system: MMC genotoxicity; conditions: CGA 5 and 50 μM, MMC 0.9 μM (0.3 μg/mL); cited from earlier work
[7] = system: S. typhimurium TA98 strain; conditions: against 4NQO; cited from earlier work
[8] = +S9, highest tested concentration 10 μg/mL
[9] = mixture with 2AA 1 μg/mL, PhA concentration 0.3125 (mg/mL)
[10] = mixture with 2AA 1 μg/mL, PhA concentration 0.625 (mg/mL)
[11] = mixture with 2AA 1 μg/mL, PhA concentration 1.25 (mg/mL)
[12] = mixture with 2AA 1 μg/mL, PhA concentration 2.5 (mg/mL)
[13] = mixture with 2AA 1 μg/mL, PhA concentration 5 (mg/mL)
[14] = mixture with 2AA 1 μg/mL, PhA concentration 10 (mg/mL)
[15] = mixture with 2AA 10 μg/mL, PhA concentration 0.3125 (mg/mL)
[16] = mixture with 2AA 10 μg/mL, PhA concentration 0.625 (mg/mL)
[17] = mixture with 2AA 10 μg/mL, PhA concentration 1.25 (mg/mL)
[18] = mixture with 2AA 10 μg/mL, PhA concentration 2.5 (mg/mL)
[19] = mixture with 2AA 10 μg/mL, PhA concentration 5 (mg/mL)
[20] = mixture with 2AA 10 μg/mL, PhA concentration 10 (mg/mL)
[21] = mixture with MMC 0.004 μg/mL, PhA 5 μg/mL
[22] = mixture with MMC 0.004 μg/mL, PhA 10 μg/mL
[23] = mixture with MMC 0.004 μg/mL, PhA […]
[24] = mixture with MMC 0.02 μg/mL, PhA 5 μg/mL
[25] = mixture with MMC 0.02 μg/mL, PhA 10 μg/mL
[26] = mixture with MMC 0.02 μg/mL, PhA […]
[27] = mixture with CPZ 5 μg/mL, UVA, PhA 5 μg/mL
[28] = mixture with CPZ 5 μg/mL, UVA, PhA 10 μg/mL
[29] = mixture with CPZ 5 μg/mL, UVA, PhA […]
[30] = mixture with CPZ 10 μg/mL, UVA, PhA 5 μg/mL
[31] = mixture with CPZ 10 μg/mL, UVA, PhA 10 μg/mL
[32] = mixture with CPZ 10 μg/mL, UVA, PhA […]

SMILES	IR (mean ± SD) [1]	IR (mean ± SD) [2, 8]	IR (mean ± SD) [2, 9]	IR (mean ± SD) [2, 10]	IR (mean ± SD) [2, 11]	IR (mean ± SD) [2, 12]	IR (mean ± SD) [2, 13]	IR (mean ± SD) [2, 14]	IR (mean ± SD) [2, 15]	IR (mean ± SD) [2, 16]	IR (mean ± SD) [2, 17]	IR (mean ± SD) [2, 18]	IR (mean ± SD) [2, 19]	IR (mean ± SD) [2, 20]	IR (mean ± SD) [3, 21]	IR (mean ± SD) [3, 22]	IR (mean ± SD) [3, 23]	IR (mean ± SD) [3, 24]	IR (mean ± SD) [3, 25]	IR (mean ± SD) [3, 26]	also measured
COc1cc(/C=C/C(=O)O)ccc1O [FA, ferulic acid]	1.2 ± 0.10	1.1 ± 0.14	3.1 ± 0.73	2.7 ± 0.37	2.9 ± 0.66	2.8 ± 0.58	3.4 ± 0.96	4 ± 1.0	2.9 ± 0.43	3.1 ± 0.75	3.3 ± 0.63	3.2 ± 0.45	4 ± 1.3	5 ± 1.4	2.5 ± 0.62	2.3 ± 0.51	2.6 ± 0.93	5 ± 1.2	5 ± 1.2	5 ± 1.2	Antigenotox. ([2]; 2AA 1 μg/mL, PhA concentration 0.625 (mg/mL)): 19%; Anti-Photogenotox. ([4]; CPZ 5 μg/mL, UVA, PhA 5 μg/mL): 15%; Anti-Photogenotox. ([4]; CPZ 5 μg/mL, UVA, PhA 10 μg/mL): 11%; Anti-Photogenotox. ([4]; CPZ 5 μg/mL, UVA, PhA […]): 20%; Anti-Photogenotox. ([4]; CPZ 10 μg/mL, UVA, PhA 10 μg/mL): 15%; Anti-Photogenotox. ([4]; CPZ 10 μg/mL, UVA, PhA […]): 14%; IR (mean ± SD) [4, 27]: 3.0 ± 0.37; IR (mean ± SD) [4, 28]: 3.2 ± 0.20; IR (mean ± SD) [4, 29]: 3.0 ± 0.41; IR (mean ± SD) [4, 30]: 4.5 ± 0.73; IR (mean ± SD) [4, 31]: 4.3 ± 0.46; IR (mean ± SD) [4, 32]: 4 ± 1.1; IR (mean ± SD) ([5]; PhA 5 μg/mL): 3.6 ± 0.67; IR (mean ± SD) ([5]; PhA 10 μg/mL): 4.0 ± 0.70
O=C(/C=C/c1ccc(O)c(O)c1)O[C@@H]1C[C@](O)(C(=O)O)C[C@@H](O)[C@H]1O [CGA, Chlorogenic acid]	–	–	–	–	–	–	–	–	–	–	–	–	–	–	–	–	–	–	–	–	inhibition of MMC genotoxicity [6]: 65%
Nc1ccc2cc3ccccc3cc2c1 [2AA, 2-aminoanthracene]	–	–	–	–	–	–	–	–	–	–	–	–	–	–	–	–	–	–	–	–	IR (mean ± SD) ([2]; control: 2AA 1 μg/mL alone, +S9, experiments with PhAs): 3.37 ± 0.72; IR (mean ± SD) ([2]; control: 2AA 1 μg/mL alone, +S9, experiments with extracts): 4.5 ± 0.99; IR (mean ± SD) ([2]; control: 2AA 10 μg/mL alone, +S9, experiments with PhAs): 4 ± 1.3; IR (mean ± SD) ([2]; control: 2AA 10 μg/mL alone, +S9, experiments with extracts): 6 ± 1.5
CN(C)CCCN1c2ccccc2Sc2ccc(Cl)cc21 [CPZ, chlorpromazine]	–	–	–	–	–	–	–	–	–	–	–	–	–	–	–	–	–	–	–	–	IR (mean ± SD) ([4]; control: CPZ 5 μg/mL alone, UVA irradiation): 3.6 ± 0.40; IR (mean ± SD) ([4]; control: CPZ 10 μg/mL alone, UVA irradiation): 5.1 ± 0.78
O=C(O)/C=C/c1ccc(O)c(O)c1 [CA, caffeic acid]	1.1 ± 0.16	1.0 ± 0.11	3 ± 1.0	3.1 ± 0.55	3.1 ± 0.29	3.1 ± 0.53	3.7 ± 0.77	3.8 ± 0.85	2.8 ± 0.60	3.4 ± 0.90	2.7 ± 0.34	3.2 ± 0.51	3.6 ± 0.89	3.7 ± 0.80	2.7 ± 0.81	2.3 ± 0.67	2.5 ± 0.75	5 ± 1.1	5 ± 1.2	5 ± 1.2	Antigenotox. ([2]; 2AA 10 μg/mL, PhA concentration 1.25 (mg/mL)): 24%; Anti-Photogenotox. ([4]; CPZ 5 μg/mL, UVA, PhA […]): 11%; Anti-Photogenotox. ([4]; CPZ 10 μg/mL, UVA, PhA […]): 10%; IR (mean ± SD) [4, 27]: 3.3 ± 0.33; IR (mean ± SD) [4, 28]: 3.4 ± 0.25; IR (mean ± SD) [4, 29]: 3.2 ± 0.40; IR (mean ± SD) [4, 30]: 5 ± 1.2; IR (mean ± SD) [4, 31]: 4.9 ± 0.90; IR (mean ± SD) [4, 32]: 4.5 ± 0.49; IR (mean ± SD) ([5]; PhA 5 μg/mL): 3.7 ± 0.69; IR (mean ± SD) ([5]; PhA 10 μg/mL): 3.9 ± 0.99; reduction of the number of revertants [7]: 28%
